Reference: patent US12275731B2, “Azaindole inhibitors of wild-type and mutant forms of LRRK2” (DANA-FARBER CANCER INSTITUTE, INC., priority 2018, dated 2025)

Assays:
Assay in all cases: KinomeScan profiling
Assay type in all cases: binding
CSNK1E = CSNK1E (Homo sapiens, UniProt P49674); details: read-out: % control
How it was run: (§1)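 Normalised RLU (% control; DMSO 100%, positive control 0%) was measured for compounds dosed at 1 μM over 468 kinases, active cut-off <35%.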

FLT3(N841I) = target: T1, FLT3(N841I) (Homo sapiens, UniProt P36888, N841I); details: read-out: % control
T1 sequence (P36888 27-993 N841I): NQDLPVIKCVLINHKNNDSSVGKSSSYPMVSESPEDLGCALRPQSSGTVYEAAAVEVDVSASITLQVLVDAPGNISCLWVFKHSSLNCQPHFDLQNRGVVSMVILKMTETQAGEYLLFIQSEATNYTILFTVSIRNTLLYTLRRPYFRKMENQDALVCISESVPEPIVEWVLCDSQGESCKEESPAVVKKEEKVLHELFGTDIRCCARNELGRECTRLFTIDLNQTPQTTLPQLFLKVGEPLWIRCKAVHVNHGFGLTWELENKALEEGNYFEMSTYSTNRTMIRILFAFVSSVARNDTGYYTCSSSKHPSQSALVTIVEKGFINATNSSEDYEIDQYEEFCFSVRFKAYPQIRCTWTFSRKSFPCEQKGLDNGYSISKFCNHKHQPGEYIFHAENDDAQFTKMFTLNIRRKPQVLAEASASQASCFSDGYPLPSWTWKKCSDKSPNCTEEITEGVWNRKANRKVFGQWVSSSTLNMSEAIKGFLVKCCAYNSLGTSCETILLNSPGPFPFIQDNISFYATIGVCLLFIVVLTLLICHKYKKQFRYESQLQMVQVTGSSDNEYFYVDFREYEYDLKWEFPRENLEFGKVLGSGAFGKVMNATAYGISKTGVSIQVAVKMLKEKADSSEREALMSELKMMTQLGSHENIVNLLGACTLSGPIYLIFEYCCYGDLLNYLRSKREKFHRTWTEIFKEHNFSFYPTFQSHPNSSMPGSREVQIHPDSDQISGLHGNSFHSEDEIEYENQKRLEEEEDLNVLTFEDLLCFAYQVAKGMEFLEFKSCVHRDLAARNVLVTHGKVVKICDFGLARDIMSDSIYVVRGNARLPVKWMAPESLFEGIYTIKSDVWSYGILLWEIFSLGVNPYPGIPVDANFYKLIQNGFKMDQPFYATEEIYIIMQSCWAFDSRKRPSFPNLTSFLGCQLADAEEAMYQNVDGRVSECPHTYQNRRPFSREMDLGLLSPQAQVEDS
How it was run: as §1

MAP3K15 = target: T2, MAP3K15 (Homo sapiens, UniProt Q6ZN16); details: MAP3K15, 1 μM; read-out: % control
T2 sequence (Q6ZN16 1-1313): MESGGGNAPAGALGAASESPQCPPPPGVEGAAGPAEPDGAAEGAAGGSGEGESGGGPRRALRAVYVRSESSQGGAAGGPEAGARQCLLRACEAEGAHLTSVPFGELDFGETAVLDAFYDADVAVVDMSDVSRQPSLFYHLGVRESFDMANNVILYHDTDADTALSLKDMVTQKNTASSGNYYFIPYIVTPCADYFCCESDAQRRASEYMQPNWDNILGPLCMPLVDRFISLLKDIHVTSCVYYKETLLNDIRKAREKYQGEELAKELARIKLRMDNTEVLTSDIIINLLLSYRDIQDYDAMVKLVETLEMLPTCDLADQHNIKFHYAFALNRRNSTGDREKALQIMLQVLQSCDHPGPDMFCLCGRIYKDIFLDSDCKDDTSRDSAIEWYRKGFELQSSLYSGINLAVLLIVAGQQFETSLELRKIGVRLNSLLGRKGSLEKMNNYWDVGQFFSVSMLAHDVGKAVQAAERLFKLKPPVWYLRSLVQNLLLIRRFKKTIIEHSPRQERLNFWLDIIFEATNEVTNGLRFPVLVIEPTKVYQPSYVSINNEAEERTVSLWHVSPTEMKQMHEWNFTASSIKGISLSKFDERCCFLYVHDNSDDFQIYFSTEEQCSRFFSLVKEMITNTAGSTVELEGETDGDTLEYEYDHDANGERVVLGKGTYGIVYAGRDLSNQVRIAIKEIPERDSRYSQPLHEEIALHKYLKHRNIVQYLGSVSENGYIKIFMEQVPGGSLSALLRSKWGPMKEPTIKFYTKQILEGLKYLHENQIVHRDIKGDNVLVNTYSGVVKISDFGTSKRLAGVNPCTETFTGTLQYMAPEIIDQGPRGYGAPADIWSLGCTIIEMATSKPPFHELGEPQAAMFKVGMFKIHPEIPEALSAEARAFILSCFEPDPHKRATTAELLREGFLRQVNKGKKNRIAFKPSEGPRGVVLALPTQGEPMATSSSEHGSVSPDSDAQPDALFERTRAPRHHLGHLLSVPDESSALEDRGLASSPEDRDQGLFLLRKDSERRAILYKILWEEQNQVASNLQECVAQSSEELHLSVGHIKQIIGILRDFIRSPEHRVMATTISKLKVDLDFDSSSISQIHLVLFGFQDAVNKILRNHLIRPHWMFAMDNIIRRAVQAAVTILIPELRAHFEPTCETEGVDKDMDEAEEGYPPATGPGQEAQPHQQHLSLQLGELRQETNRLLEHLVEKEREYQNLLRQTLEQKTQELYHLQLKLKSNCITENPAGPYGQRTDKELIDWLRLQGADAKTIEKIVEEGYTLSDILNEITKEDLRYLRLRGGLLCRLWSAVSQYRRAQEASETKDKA
How it was run: as §1

MELK = MELK (Homo sapiens, UniProt Q14680); details: read-out: % control
Chain of MELK (Q14680 whole entry): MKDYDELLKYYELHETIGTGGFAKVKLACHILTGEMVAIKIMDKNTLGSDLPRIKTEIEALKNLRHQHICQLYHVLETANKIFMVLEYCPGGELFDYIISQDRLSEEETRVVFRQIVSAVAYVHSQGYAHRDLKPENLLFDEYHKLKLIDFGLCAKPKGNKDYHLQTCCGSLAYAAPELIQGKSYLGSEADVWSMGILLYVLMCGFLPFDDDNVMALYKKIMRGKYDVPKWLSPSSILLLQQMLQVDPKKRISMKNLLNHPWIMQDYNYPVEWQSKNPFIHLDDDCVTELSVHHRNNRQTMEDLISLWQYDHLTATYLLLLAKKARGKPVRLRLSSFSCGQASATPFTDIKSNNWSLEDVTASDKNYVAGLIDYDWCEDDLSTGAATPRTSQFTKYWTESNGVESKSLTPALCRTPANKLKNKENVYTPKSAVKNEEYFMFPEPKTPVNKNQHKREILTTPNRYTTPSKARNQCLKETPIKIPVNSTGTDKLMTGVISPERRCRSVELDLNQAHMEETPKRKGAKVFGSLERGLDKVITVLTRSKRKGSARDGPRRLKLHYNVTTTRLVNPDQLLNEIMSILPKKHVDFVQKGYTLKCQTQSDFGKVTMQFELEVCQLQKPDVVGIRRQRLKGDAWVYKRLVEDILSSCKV
How it was run: as §1

PRKX = target: T3, PRKX (Homo sapiens, UniProt P51817); details: read-out: % control
T3 sequence (P51817 1-358): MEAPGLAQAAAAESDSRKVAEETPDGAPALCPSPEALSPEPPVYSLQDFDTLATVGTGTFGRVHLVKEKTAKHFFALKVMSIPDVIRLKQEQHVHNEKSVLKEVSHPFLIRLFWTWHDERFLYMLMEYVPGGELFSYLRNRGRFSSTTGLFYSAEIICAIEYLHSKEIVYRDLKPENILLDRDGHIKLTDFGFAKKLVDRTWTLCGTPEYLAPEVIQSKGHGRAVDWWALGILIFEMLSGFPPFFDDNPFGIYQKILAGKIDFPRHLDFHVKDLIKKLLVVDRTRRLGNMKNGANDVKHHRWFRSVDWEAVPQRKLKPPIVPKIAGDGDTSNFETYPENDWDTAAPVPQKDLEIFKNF
How it was run: as §1

Chain of CSNK1E (P49674 whole entry): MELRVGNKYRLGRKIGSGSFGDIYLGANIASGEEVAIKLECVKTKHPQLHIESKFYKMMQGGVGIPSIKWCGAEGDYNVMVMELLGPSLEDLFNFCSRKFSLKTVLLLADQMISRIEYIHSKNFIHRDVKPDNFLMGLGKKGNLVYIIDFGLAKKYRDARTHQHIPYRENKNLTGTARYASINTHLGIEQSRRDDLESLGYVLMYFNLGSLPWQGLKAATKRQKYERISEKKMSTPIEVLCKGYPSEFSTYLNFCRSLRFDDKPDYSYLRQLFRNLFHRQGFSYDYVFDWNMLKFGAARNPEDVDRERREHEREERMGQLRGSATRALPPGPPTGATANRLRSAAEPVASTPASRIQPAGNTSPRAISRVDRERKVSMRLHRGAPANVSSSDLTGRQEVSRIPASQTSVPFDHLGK

Row | Compound | remaining binding at 1 µM (CSNK1E) [%] | remaining binding at 1 µM (FLT3(N841I)) [%] | remaining binding at 1 µM (MAP3K15) [%] | remaining binding at 1 µM (MELK) [%] | remaining binding at 1 µM (PRKX) [%]
1 | O=C(c1ccc(-c2cnc3[nH]cc(Cl)c3c2NC2CCCC2)cc1)N1CCC(N2CCOCC2)CC1 [Compound 101, (4-(3-chloro-4-(cyclopentylamino)-1H-pyrrolo[2,3-b]pyridin-5-yl)phenyl)(4-morpholinopiperidin-1-yl)methanone] | 81 | 2.6 | 100 | 30 | 82
2 | CNc1c(-c2cnn([C@H]3CCN(C(C)=O)C[C@@H]3F)c2)cnc2[nH]cc(Cl)c12 [Compound 77, 1-((3S,4S)-4-(4-(3-chloro-4-(methylamino)-1H-pyrrolo[2,3-b]pyridin-5-yl)-1H-pyrazol-1-yl)-3-fluoropiperidin-1-yl)ethan-1-one] | 68 | 1 | 1.4 | 20 | 100
3 | CNc1c(-c2ccc(C(=O)N3CCC(N4CCOCC4)CC3)cc2)cnc2[nH]cc(Cl)c12 [Compound 96, (4-(3-chloro-4-(methylamino)-1H-pyrrolo[2,3-b]pyridin-5-yl)phenyl)(4-morpholinopiperidin-1-yl)methanone] | 17 | 14 | 1.8 | 16 | 100
